Assay results from ChEMBL document CHEMBL1255382, “Genetic mapping of targets mediating differential chemical phenotypes in Plasmodium falciparum” (Nat Chem Biol, 2009).
Counter-ions that a name gives are not always drawn.

Key:
Plasmodium falciparum [1] = assay: microbe, parasite or virus in culture; type: functional, organism-based, W2; settings: for IC50: Plasmodium falciparum, W2, 72 h
Description: Antiplasmodial activity against Plasmodium falciparum W2 after 72 hrs by SYBR green assay

Plasmodium falciparum [2] = assay: microbe, parasite or virus in culture; settings: Dd2, 72 h
Description: Antiplasmodial activity against Plasmodium falciparum Dd2 after 72 hrs by SYBR green assay

Plasmodium falciparum [3] = assay: microbe, parasite or virus in culture; type: functional, organism-based; settings: 3D7, 72 h
Description: Antiplasmodial activity against Plasmodium falciparum 3D7 after 72 hrs by SYBR green assay

Plasmodium falciparum [4] = assay: microbe, parasite or virus in culture; settings: HB3, 72 h
Description: Antiplasmodial activity against Plasmodium falciparum HB3 after 72 hrs by SYBR green assay

Plasmodium falciparum [5] = assay: microbe, parasite or virus in culture; type: functional, organism-based; settings: GB4, 72 h
Description: Antiplasmodial activity against Plasmodium falciparum GB4 after 72 hrs by SYBR green assay

Plasmodium falciparum [6] = assay: microbe, parasite or virus in culture; type: functional, organism-based; settings: 7G8, 72 h
Description: Antiplasmodial activity against Plasmodium falciparum 7G8 after 72 hrs by SYBR green assay

Plasmodium falciparum [7] = assay: microbe, parasite or virus in culture; settings: D10, 72 h
Description: Antiplasmodial activity against Plasmodium falciparum D10 after 72 hrs by SYBR green assay

Plasmodium falciparum [8] = assay: microbe, parasite or virus in culture; settings: WE2, 72 h
Description: Antiplasmodial activity against Plasmodium falciparum WE2 after 72 hrs by SYBR green assay

Plasmodium falciparum [9] = assay: microbe, parasite or virus in culture; settings: JB12, 72 h
Description: Antiplasmodial activity against Plasmodium falciparum JB12 after 72 hrs by SYBR green assay

Plasmodium falciparum [10] = assay: microbe, parasite or virus in culture; settings: KA6, 72 h
Description: Antiplasmodial activity against Plasmodium falciparum KA6 after 72 hrs by SYBR green assay

Plasmodium falciparum [11] = assay: microbe, parasite or virus in culture; settings: WF12, 72 h
Description: Antiplasmodial activity against Plasmodium falciparum WF12 after 72 hrs by SYBR green assay

Plasmodium falciparum [12] = assay: microbe, parasite or virus in culture; settings: HB3, 72 h; remark: listed apart in the source
Description: Antiplasmodial activity against Plasmodium falciparum HB3 harboring polymorphic DHFR after 72 hrs by SYBR green assay

Plasmodium falciparum [13] = assay: microbe, parasite or virus in culture; settings: NIC, 72 h
Description: Antiplasmodial activity against Plasmodium falciparum NIC after 72 hrs by SYBR green assay

Plasmodium falciparum [14] = assay: microbe, parasite or virus in culture; settings: LA10, 72 h
Description: Antiplasmodial activity against Plasmodium falciparum LA10 after 72 hrs by SYBR green assay

Plasmodium falciparum [15] = assay: microbe, parasite or virus in culture; settings: KC5, 72 h
Description: Antiplasmodial activity against Plasmodium falciparum KC5 after 72 hrs by SYBR green assay

Plasmodium falciparum [16] = assay: microbe, parasite or virus in culture; settings: W2, 72 h
Description: Antiplasmodial activity against Plasmodium falciparum W2 harboring polymorphic DHFR after 72 hrs by SYBR green assay

Plasmodium falciparum [17] = assay: microbe, parasite or virus in culture; settings: Dd2, 72 h; remark: listed apart in the source
Description: Antiplasmodial activity against transgenic Plasmodium falciparum Dd2 pDT harboring polymorphic DHFR after 72 hrs by SYBR green assay

Plasmodium falciparum [18] = assay: microbe, parasite or virus in culture; settings: XB3, 72 h
Description: Antiplasmodial activity against Plasmodium falciparum XB3 after 72 hrs by SYBR green assay

Plasmodium falciparum [19] = assay: microbe, parasite or virus in culture; settings: QF5, 72 h
Description: Antiplasmodial activity against Plasmodium falciparum QF5 after 72 hrs by SYBR green assay

Plasmodium falciparum [20] = assay: microbe, parasite or virus in culture; settings: Dd2, 72 h; remark: listed apart in the source
Description: Antiplasmodial activity against Plasmodium falciparum Dd2 harboring polymorphic DHFR after 72 hrs by SYBR green assay

Plasmodium falciparum [21] = assay: microbe, parasite or virus in culture; settings: DEV, 72 h
Description: Antiplasmodial activity against Plasmodium falciparum DEV after 72 hrs by SYBR green assay

Plasmodium falciparum [22] = assay: microbe, parasite or virus in culture; settings: AL2, 72 h
Description: Antiplasmodial activity against Plasmodium falciparum AL2 after 72 hrs by SYBR green assay

Plasmodium falciparum [23] = assay: microbe, parasite or virus in culture; settings: KC2, 72 h
Description: Antiplasmodial activity against Plasmodium falciparum KC2 after 72 hrs by SYBR green assay

Plasmodium falciparum [24] = assay: microbe, parasite or virus in culture; settings: D2, 72 h
Description: Antiplasmodial activity against Plasmodium falciparum D2 after 72 hrs by SYBR green assay

Plasmodium falciparum [25] = assay: microbe, parasite or virus in culture; settings: AUD, 72 h
Description: Antiplasmodial activity against Plasmodium falciparum AUD after 72 hrs by SYBR green assay

Plasmodium falciparum [26] = assay: microbe, parasite or virus in culture; settings: XE7, 72 h
Description: Antiplasmodial activity against Plasmodium falciparum XE7 after 72 hrs by SYBR green assay

Plasmodium falciparum [27] = system: Plasmodium falciparum
Description: (§1) Antiplasmodial activity against Plasmodium falciparum XF12 after 72 hrs by SYBR green assay

Plasmodium falciparum [28] = assay: microbe, parasite or virus in culture; settings: DAN, 72 h
Description: Antiplasmodial activity against Plasmodium falciparum DAN after 72 hrs by SYBR green assay

Plasmodium falciparum [29] = assay: microbe, parasite or virus in culture; settings: D10, 72 h; remark: listed apart in the source
Description: Antiplasmodial activity against Plasmodium falciparum D10 harboring polymorphic DHFR after 72 hrs by SYBR green assay

Plasmodium falciparum [30] = assay: microbe, parasite or virus in culture; settings: KH7, 72 h
Description: Antiplasmodial activity against Plasmodium falciparum KH7 after 72 hrs by SYBR green assay

Plasmodium falciparum [31] = assay: microbe, parasite or virus in culture; settings: KB8, 72 h
Description: Antiplasmodial activity against Plasmodium falciparum KB8 after 72 hrs by SYBR green assay

Plasmodium falciparum [32] = assay: microbe, parasite or virus in culture; settings: JC9, 72 h
Description: Antiplasmodial activity against Plasmodium falciparum JC9 after 72 hrs by SYBR green assay

Plasmodium falciparum [33] = assay: microbe, parasite or virus in culture; settings: XG10, 72 h
Description: Antiplasmodial activity against Plasmodium falciparum XG10 after 72 hrs by SYBR green assay

Plasmodium falciparum [34] = assay: microbe, parasite or virus in culture; settings: XD8, 72 h
Description: Antiplasmodial activity against Plasmodium falciparum XD8 after 72 hrs by SYBR green assay

Plasmodium falciparum [35] = assay: microbe, parasite or virus in culture; settings: JB8, 72 h
Description: Antiplasmodial activity against Plasmodium falciparum JB8 after 72 hrs by SYBR green assay

Plasmodium falciparum [36] = assay: microbe, parasite or virus in culture; settings: TF1, 72 h
Description: Antiplasmodial activity against Plasmodium falciparum TF1 after 72 hrs by SYBR green assay

Plasmodium falciparum [37] = assay: microbe, parasite or virus in culture; settings: GB4, 72 h
Description: Antiplasmodial activity against Plasmodium falciparum GB4 harboring polymorphic DHFR after 72 hrs by SYBR green assay

Plasmodium falciparum [38] = assay: microbe, parasite or virus in culture; settings: JF11, 72 h
Description: Antiplasmodial activity against Plasmodium falciparum JF11 after 72 hrs by SYBR green assay

Plasmodium falciparum [39] = assay: microbe, parasite or virus in culture; settings: 7G8, 72 h
Description: Antiplasmodial activity against Plasmodium falciparum 7G8 harboring polymorphic DHFR after 72 hrs by SYBR green assay

Plasmodium falciparum [40] = assay: microbe, parasite or virus in culture; settings: XF12, 72 h
Description: as §1

Plasmodium falciparum [41] = assay: microbe, parasite or virus in culture; settings: JC3, 72 h
Description: Antiplasmodial activity against Plasmodium falciparum JC3 after 72 hrs by SYBR green assay

Plasmodium falciparum [42] = assay: microbe, parasite or virus in culture; settings: HB3 pDT, 72 h
Description: Antiplasmodial activity against transgenic Plasmodium falciparum HB3 pDT harboring polymorphic DHFR after 72 hrs by SYBR green assay

Plasmodium falciparum [43] = assay: microbe, parasite or virus in culture; settings: JON, 72 h
Description: Antiplasmodial activity against Plasmodium falciparum JON after 72 hrs by SYBR green assay

Plasmodium falciparum [44] = assay: microbe, parasite or virus in culture; settings: LC12, 72 h
Description: Antiplasmodial activity against Plasmodium falciparum LC12 after 72 hrs by SYBR green assay

Plasmodium falciparum [45] = assay: microbe, parasite or virus in culture; settings: WC4, 72 h
Description: Antiplasmodial activity against Plasmodium falciparum WC4 after 72 hrs by SYBR green assay

Plasmodium falciparum [46] = assay: microbe, parasite or virus in culture; settings: JH6, 72 h
Description: Antiplasmodial activity against Plasmodium falciparum JH6 after 72 hrs by SYBR green assay

Plasmodium falciparum [47] = assay: microbe, parasite or virus in culture; settings: NF10, 72 h
Description: Antiplasmodial activity against Plasmodium falciparum NF10 after 72 hrs by SYBR green assay

Plasmodium falciparum [48] = assay: Antiplasmodial activity against Plasmodium falciparum CDY harboring modified mdr1 protein after 72 hrs by SYBR green assay in presence of 0.8 uM P-gp inhibitor verapamil; type: functional, organism-based; settings: MDR1, 72 h

**Q.** With `CCCNC[C@H](O)COc1ccccc1C(=O)CCc1ccccc1` as the compound, how does the IC50 (Plasmodium falciparum [1]) read?
**A.** 280 nM

**Q.** With `CCN(CC)CCNC(=O)c1cc(Cl)c(N)cc1OC.Cl` as the compound, how does the pIC25 (Plasmodium falciparum [1]) read?
**A.** 4.9

**Q.** For `Nc1ccc(-c2nc3ccc(-c4nc5ccc(N)cc5[nH]4)cc3[nH]2)cc1`, which IC50 (Plasmodium falciparum [2]) is on record?
**A.** 1000 nM

**Q.** What about the IC50 (Plasmodium falciparum [3]) of the same compound?
**A.** 280 nM

**Q.** And the IC50 (Plasmodium falciparum [4])?
**A.** 830 nM

**Q.** And the IC50 (Plasmodium falciparum [1])?
**A.** 220 nM

**Q.** And the IC50 (Plasmodium falciparum [5])?
**A.** 740 nM

**Q.** What about the IC50 (Plasmodium falciparum [6]) of the same compound?
**A.** 520 nM

**Q.** And the IC50 (Plasmodium falciparum [7])?
**A.** 740 nM

**Q.** How did the IC50 (Plasmodium falciparum [8]) turn out when `Nc1nc(N)c2nc(-c3ccccc3)c(N)nc2n1` was run?
**A.** 44.6 µM

**Q.** What about the IC50 (Plasmodium falciparum [9]) of the same compound?
**A.** 65.1 µM

**Q.** What about the IC50 (Plasmodium falciparum [10]) of the same compound?
**A.** 5.19 µM

**Q.** And the IC50 (Plasmodium falciparum [11])?
**A.** 5.83 µM

**Q.** What about the IC50 (Plasmodium falciparum [12]) of the same compound?
**A.** 176 µM

**Q.** What about the IC50 (Plasmodium falciparum [13]) of the same compound?
**A.** 11.2 µM

**Q.** And the IC50 (Plasmodium falciparum [14])?
**A.** 5.59 µM

**Q.** And the IC50 (Plasmodium falciparum [15])?
**A.** 73.5 µM

**Q.** And the IC50 (Plasmodium falciparum [16])?
**A.** 95 µM

**Q.** And the IC50 (Plasmodium falciparum [17])?
**A.** 4 µM

**Q.** And the IC50 (Plasmodium falciparum [18])?
**A.** 57 µM

**Q.** And the IC50 (Plasmodium falciparum [19])?
**A.** 3.54 µM

**Q.** And the IC50 (Plasmodium falciparum [20])?
**A.** 141 µM

**Q.** What about the IC50 (Plasmodium falciparum [21]) of the same compound?
**A.** 60.5 µM

**Q.** What about the IC50 (Plasmodium falciparum [22]) of the same compound?
**A.** 81.8 µM

**Q.** And the IC50 (Plasmodium falciparum [23])?
**A.** 60.4 µM

**Q.** And the IC50 (Plasmodium falciparum [24])?
**A.** 22.2 µM

**Q.** And the IC50 (Plasmodium falciparum [25])?
**A.** 54.2 µM

**Q.** What about the IC50 (Plasmodium falciparum [26]) of the same compound?
**A.** 18.1 µM

**Q.** And the IC50 (Plasmodium falciparum [27])?
**A.** 17.1 µM

**Q.** And the IC50 (Plasmodium falciparum [28])?
**A.** 69.5 µM

**Q.** What about the IC50 (Plasmodium falciparum [29]) of the same compound?
**A.** 70 µM

**Q.** And the IC50 (Plasmodium falciparum [30])?
**A.** 15 µM

**Q.** And the IC50 (Plasmodium falciparum [31])?
**A.** 56.3 µM

**Q.** What about the IC50 (Plasmodium falciparum [32]) of the same compound?
**A.** 43.7 µM

**Q.** And the IC50 (Plasmodium falciparum [33])?
**A.** 8.13 µM

**Q.** What about the IC50 (Plasmodium falciparum [34]) of the same compound?
**A.** 59.8 µM

**Q.** What about the IC50 (Plasmodium falciparum [35]) of the same compound?
**A.** 49.4 µM

**Q.** And the IC50 (Plasmodium falciparum [36])?
**A.** 8.82 µM

**Q.** What about the IC50 (Plasmodium falciparum [37]) of the same compound?
**A.** 5.3 µM

**Q.** What about the IC50 (Plasmodium falciparum [38]) of the same compound?
**A.** 5.11 µM

**Q.** What about the IC50 (Plasmodium falciparum [39]) of the same compound?
**A.** 154 µM

**Q.** And the IC50 (Plasmodium falciparum [40])?
**A.** 17.1 µM

**Q.** And the IC50 (Plasmodium falciparum [41])?
**A.** 4.26 µM

**Q.** And the IC50 (Plasmodium falciparum [6])?
**A.** 51700 nM

**Q.** And the IC50 (Plasmodium falciparum [42])?
**A.** 95 µM

**Q.** What about the IC50 (Plasmodium falciparum [43]) of the same compound?
**A.** 3.29 µM

**Q.** And the IC50 (Plasmodium falciparum [44])?
**A.** 50.1 µM

**Q.** What about the IC50 (Plasmodium falciparum [45]) of the same compound?
**A.** 52.5 µM

**Q.** What about the IC50 (Plasmodium falciparum [46]) of the same compound?
**A.** 64.8 µM

**Q.** And the IC50 (Plasmodium falciparum [47])?
**A.** 75.1 µM

**Q.** Which IC50 (Plasmodium falciparum [48]) does the source give for `CN1C[C@H](C(=O)N[C@]2(C)O[C@@]3(O)[C@@H]4CCCN4C(=O)[C@H](Cc4ccccc4)N3C2=O)C[C@@H]2c3cccc4[nH]cc(c34)C[C@H]21` (stereo in doubt; 1) [DIHYDROERGOTAMINE MESYLATE] here?
**A.** 22 nM

**Q.** What does the source list for `CC[C@@]1(O)C(=O)OCc2c1cc1n(c2=O)Cc2cc3ccccc3nc2-1` [CAMPTOTHECIN]?
**A.** IC50 (Plasmodium falciparum [2]): 1320 nM; IC50 (Plasmodium falciparum [3]): 830 nM; IC50 (Plasmodium falciparum [4]): 890 nM; IC50 (Plasmodium falciparum [1]): 560 nM; IC50 (Plasmodium falciparum [5]): 890 nM; IC50 (Plasmodium falciparum [6]): 1410 nM; IC50 (Plasmodium falciparum [7]): 1120 nM

**Q.** Which results are given for `Cc1cc(N)c2ccccc2[n+]1CCCCCCCCCC[n+]1c(C)cc(N)c2ccccc21` [DEQUALINIUM CHLORIDE]?
**A.** IC50 (Plasmodium falciparum [4]): 100 nM; IC50 (Plasmodium falciparum [7]): 100 nM

**Q.** For `COc1cc(Cc2cnc(N)nc2N)cc(OC)c1OC` [TRIMETHOPRIM], which IC50 (Plasmodium falciparum [12]) is on record?
**A.** 158 µM

**Q.** And the IC50 (Plasmodium falciparum [20])?
**A.** 169 µM

**Q.** What about the IC50 (Plasmodium falciparum [37]) of the same compound?
**A.** 4.1 µM

**Q.** What about the IC50 (Plasmodium falciparum [39]) of the same compound?
**A.** 194 µM

**Q.** And the IC50 (Plasmodium falciparum [42])?
**A.** 117 µM
